From ChEMBL document CHEMBL4371026, “Prodrugs of the cancer cell selective anti-cancer agent (Z)-2-(1H-indol-3-yl)-3-(isoquinolin-5-yl)acrylonitrile (A131) are orally efficacious in a mouse model of resistant colon cancer” (Bioorg Med Chem Lett, 2019)

Experiments:
BJ [1] = test: Induction of mitosis in transformed human BJ cells assessed as increase in pH3 Ser10 expression at 5 uM after 24 hrs by Western blot analysis relative to control; assay type: functional
BJ [2] = test: Induction of autophagy in transformed human BJ cells assessed as increase in LC3-2 to LC3-1 ratio at 5 uM after 24 hrs by Western blot analysis relative to control; assay type: functional
[3] = Prodrug conversion in pH 7.4 10% FBS assessed as formation of A131 measured at 1 hr by LC-MS/MS analysis relative to parent compound; assay type: ADME; conditions: cattle, pH 7.4, 1 h
[4] = Prodrug conversion in pH 7.4 10% FBS assessed as formation of A131 measured at 2 hrs by LC-MS/MS analysis relative to parent compound; assay type: ADME; conditions: cattle, pH 7.4, 2 h
[5] = Prodrug conversion in pH 7.4 10% FBS assessed as formation of A131 measured at 3 hrs by LC-MS/MS analysis relative to parent compound; assay type: ADME; conditions: cattle, pH 7.4, 3 h
[6] = Prodrug conversion in pH 7.4 10% FBS assessed as formation of A131 measured at 6 hrs by LC-MS/MS analysis relative to parent compound; assay type: ADME; conditions: cattle, pH 7.4, 6 h
[7] = Prodrug conversion in pH 7.4 10% FBS assessed as formation of A131 by measuring apparent half life; assay type: ADME; conditions: cattle
[8] = Prodrug conversion in pH 7.4 phosphate buffer saline assessed as formation of A131 by measuring apparent half life; assay type: ADME
[9] = Prodrug conversion in human plasma assessed as formation of A131 by measuring apparent half life; assay type: ADME, cell-free
[10] = Prodrug conversion in mouse plasma assessed as formation of A131 by measuring apparent half life; assay type: ADME, cell-free
[11] = Half life in simulated gastric fluid TS; assay type: ADME
[12] = Half life in simplified simulated gastric fluid; assay type: ADME
[13] = Stability in simulated gastric fluid TS assessed as parent compound remaining at 24 hrs; assay type: ADME; conditions: read-out: Stability
[14] = Stability in simplified simulated gastric fluid assessed as parent compound remaining at 24 hrs; assay type: ADME; conditions: read-out: Stability
[15] = Stability in human plasma assessed as compound hydrolysis measured within 15 mins; assay type: ADME, cell-free; conditions: read-out: Drug degradation
[16] = Stability in acidic pH assessed as compound hydrolysis; assay type: physicochemical
HCT-15 [17] = test: Anticancer activity against paclitaxel-resistant human HCT15 cells xenografted in BALB/c athymic mouse assessed as tumor volume at 20 mg/kg, ip administered twice a day for 12 days measured on day 1 (reference value: 110 +/- 11 mm3); assay type: functional
HCT-15 [18] = test: Anticancer activity against paclitaxel-resistant human HCT15 cells xenografted in BALB/c athymic mouse assessed as tumor volume at 20 mg/kg, ip administered twice a day for 12 days measured on day 3 (reference value: 180 +/- 36 mm3); assay type: functional
HCT-15 [19] = test: Anticancer activity against paclitaxel-resistant human HCT15 cells xenografted in BALB/c athymic mouse assessed as tumor volume at 20 mg/kg, ip administered twice a day for 12 days measured on day 5 (reference value: 329 +/- 45 mm3); assay type: functional
HCT-15 [20] = test: Anticancer activity against paclitaxel-resistant human HCT15 cells xenografted in BALB/c athymic mouse assessed as tumor volume at 20 mg/kg, ip administered twice a day for 12 days measured on day 7 (reference value: 495 +/- 109 mm3); assay type: functional
HCT-15 [21] = test: Anticancer activity against paclitaxel-resistant human HCT15 cells xenografted in BALB/c athymic mouse assessed as tumor volume at 20 mg/kg, ip administered twice a day for 12 days measured on day 9 (reference value: 546 +/- 87 mm3); assay type: functional
HCT-15 [22] = test: Anticancer activity against paclitaxel-resistant human HCT15 cells xenografted in BALB/c athymic mouse assessed as tumor volume at 20 mg/kg, ip administered twice a day for 12 days measured on day 12 (reference value: 779 +/- 144 mm3); assay type: functional

In the case of CS(=O)(=O)n1cc(/C(C#N)=C/c2cccc3cnccc23)c2ccccc21, the “fold change (FC)” value (BJ [1]) is reported as 0.4 and the “fold change (FC)” value (BJ [2]) is reported as 0.8.

In the case of N#C/C(=C\c1cccc2cnccc12)c1cn(C(=O)C2CCNCC2)c2ccccc12, the “fold change (FC)” value (BJ [1]) is reported as 10.1, the “fold change (FC)” value (BJ [2]) is reported as 7.3 and the “fold change (FC)” value [3] is reported as 7.03. For the same compound, the “fold change (FC)” value [4] was 13.17, the “fold change (FC)” value [5] was 14.48 and the “fold change (FC)” value [6] was 16.5. For the same compound, the “t1/2(app)” value [7] was 1.14 h, the “t1/2(app)” value [8] was 2.58 h and the “t1/2(app)” value [9] was 4.2 min. The “t1/2(app)” value [10] was 0.208 h, the half-life [11] was over 24 h and the half-life [12] was over 24 h. For the same compound, the remaining at 24 h [13] was 75%, the remaining at 24 h [14] was 75% and the metabolised at 0.25 h [15] was over 90%. For the same compound, the Stability [16] was “Stable”.

For Cn1cc(/C(C#N)=C/c2cccc3cnccc23)c2ccccc21, the “fold change (FC)” value (BJ [1]) was 1.1 and the “fold change (FC)” value (BJ [2]) was 1.6.

For CC(=O)NCCC(=O)n1cc(/C(C#N)=C/c2cccc3cnccc23)c2ccccc21, the “fold change (FC)” value (BJ [1]) was 2.8 and the “fold change (FC)” value (BJ [2]) was 2.3.

With CN1CCN(CC(=O)n2cc(/C(C#N)=C/c3cccc4cnccc34)c3ccccc32)CC1 the “fold change (FC)” value (BJ [1]) was 11.8, the “fold change (FC)” value (BJ [2]) was 5 and the “fold change (FC)” value [3] was 4.68. The “fold change (FC)” value [4] was 7.51, the “fold change (FC)” value [5] was 8.39 and the “fold change (FC)” value [6] was 8.84. The “t1/2(app)” value [7] was 0.9 h, the “t1/2(app)” value [8] was 5.3 h and the “t1/2(app)” value [9] was 3.42 min. For the same compound, the “t1/2(app)” value [10] was 0.088 h, the half-life [11] was 24 h and the half-life [12] was 24 h. For the same compound, the remaining at 24 h [13] was 50%, the remaining at 24 h [14] was 50% and the metabolised at 0.25 h [15] was over 90%. For the same compound, the Stability [16] was “Stable”.

In the case of CCN(CC)C(=O)n1cc(/C(C#N)=C/c2cccc3cnccc23)c2ccccc21, the “fold change (FC)” value (BJ [1]) is reported as 0.6 and the “fold change (FC)” value (BJ [2]) is reported as 0.9.

With N#C/C(=C\c1cccc2cnccc12)c1c[nH]c2ccccc12 the “fold change (FC)” value (BJ [1]) was 7.3 and the “fold change (FC)” value (BJ [2]) was 5.

Cl.N#C/C(=C\c1cccc2cnccc12)c1c[nH]c2ccccc12 gave an Activity (HCT-15 [17]) of 116 mm3, an Activity (HCT-15 [18]) of 125 mm3 and an Activity (HCT-15 [19]) of 153 mm3. For the same compound, the Activity (HCT-15 [20]) was 204 mm3, the Activity (HCT-15 [21]) was 225 mm3 and the Activity (HCT-15 [22]) was 289 mm3.
